Where two headings read alike, the source gives them in different places.
Key:
[1] = Water vapor adsorption/desorption test; format: physicochemical; conditions: water vapor adsorption/desorption curve, adsorption temperature 298 K
Source text: A water vapor adsorption/desorption curve was plotted for the (2R,4R) monatin monosodium salt hydrate crystals (A) obtained in Example 1. The measurement conditions were as follows. The measured values are given in FIG. 5. • Device: Automatic vapor adsorption measuring device BELSORP18 made by Bel Japan Inc. • Measurement method: Volumetric gas adsorption method
• Adsorbed gas: H2O • Air thermostat temperature (K): 353 • Adsorption temperature (K): 298 • Saturation vapor pressure (kPa): 3.169 • Adsorption cross-sectional area (nm^2): 0.125 • Maximum adsorption pressure (relative pressure P/PO): desorption: 0.90; adsorption: 0.95 • Minimum adsorption pressure (relative pressure P/PO): desorption: 0.10; adsorption: 0.05 • Equilibration period: 500 s

[2] = Sweetness intensity by panelists relative to 5 percent sucrose aqueous solution; format: in vivo; conditions: average of values provided by seven panelists relative to 5 percent sucrose aqueous solution
Source text: Sweetness intensity: 2,700-fold (average of values provided by seven panelists relative to 5 percent sucrose aqueous solution)

[3] = for Rate of decomposition over time into the decomposition product X (lactone) / Rate of decomposition over time into the decomposition product Y (lactam): storage 120° C., open vial, HPLC area ratio relative to monatin; for Comparison of decomposition rates ((b)/(a)), decomposition product X (lactone) / Comparison of decomposition rates ((b)/(a)), decomposition product Y (lactam): Comp. Ex. 1 (b) relative to Example 4 (a), 120° C.
Protocol: A 50 mg quantity of the crystals of Example 4 and an identical quantity of the crystals of Comparative Example 1 were placed in separate 4 mL vials and stored at a temperature of 120° C. During this storage, the vials were left open. Following storage periods of 3 hours, 7 hours, and 24 hours, 2 mg of sample was removed and the rate of decomposition of the samples was determined by HPLC. Specifically, decomposition product X was a lactone compound (RT=21 minutes) and decomposition product Y was a lactam compound (RT=26 minutes). The individual area ratios (percentages) were calculated relative to the area of monatin.

[4] = 24 hr, listed as Comparative Example 1

Row | Rate of decomposition over time into the decomposition product X (lactone) ([3]; 0 hr) | Rate of decomposition over time into the decomposition product Y (lactam) ([3]; 0 hr) | Rate of decomposition over time into the decomposition product X (lactone) ([3]; 3 hr) | Rate of decomposition over time into the decomposition product Y (lactam) ([3]; 3 hr) | Rate of decomposition over time into the decomposition product X (lactone) ([3]; 7 hr) | Rate of decomposition over time into the decomposition product Y (lactam) ([3]; 7 hr) | Rate of decomposition over time into the decomposition product X (lactone) ([3]; 24 hr) | Rate of decomposition over time into the decomposition product Y (lactam) ([3]; 24 hr) | Comparison of decomposition rates ((b)/(a)), decomposition product X (lactone) ([3]; 3 hr) | Comparison of decomposition rates ((b)/(a)), decomposition product Y (lactam) ([3]; 3 hr) | Comparison of decomposition rates ((b)/(a)), decomposition product X (lactone) ([3]; 7 hr) | Comparison of decomposition rates ((b)/(a)), decomposition product Y (lactam) ([3]; 7 hr) | Comparison of decomposition rates ((b)/(a)), decomposition product X (lactone) ([3]; 24 hr) | Comparison of decomposition rates ((b)/(a)), decomposition product Y (lactam) ([3]; 24 hr) | Comparison of decomposition rates ((b)/(a)), decomposition product X (lactone) [3, 4] | Comparison of decomposition rates ((b)/(a)), decomposition product Y (lactam) [3, 4] | Compound | Most stable hydrate [1] | Sweetness intensity [2]
1 | – | – | – | – | – | – | – | – | – | – | – | – | – | – | – | – | NC(CC(O)(Cc1c[nH]c2ccccc12)C(=O)O)C(=O)[O-].[Na+] [Example 1, (2R,4R) Monatin Monosodium Salt Hydrate Crystals (A)] | trihydrate | –
2 | 0% | 0% | 0.11% | 0.11% | 0.23% | 0.21% | 0.24% | 0.38% | – | – | – | – | – | – | – | – | N[C@H](C[C@](O)(Cc1c[nH]c2ccccc12)C(=O)O)C(=O)[O-].O.[Na+] [Example 4, (2R,4R) Monatin Monosodium Salt Monohydrate Crystals (B)] | – | 2,700 fold
3 | 0% | 0% | 3.38% | 2.08% | 4.64% | 3.63% | 6.67% | 7.46% | 30-fold | 19-fold | 21-fold | 17-fold | 27-fold | 20-fold | 27 fold | 20 fold | (2R,4R) monatin monosodium salt 0.2 ethanolate [Comp. Ex. 1] | – | –

Reference: US20120289574A1, “HYDRATE CRYSTALS” (AJINOMOTO CO., INC., priority 2008, published 2012)
